From patent US8404643B2, “Metastin derivatives and use thereof” (priority 2005, dated 2013)
Numbered stars: 1 amine (or outer) side, 2 acyl side, 3 side chain; on linkers, the order of the positions; unused ones are H or OH. Square brackets hold non-standard residues; d marks the D form. Peptide text beside a SMILES is read from it. * marks the point of attachment. Phe(3R-OH) = O=C([C@@H](N[*:1])[C@H](O[*:3])c1ccccc1)[*:2]; Phe(βS-OH) = N[C@H](C(=O)O)[C@@H](O)c1ccccc1; Pro(trans-4-F) = O=C(O)[C@@H]1C[C@@H](F)CN1; pY = N[C@@H](Cc1ccc(OP(=O)(O)O)cc1)C(=O)O; Phe(3-Me) = Cc1cccc(C[C@H](N)C(=O)O)c1; Phe(4-Me) = Cc1ccc(C[C@H](N)C(=O)O)cc1; Desaminotyrosyl = O=C(CCc1ccc(O)cc1)*; Phe(2-Me) = Cc1ccccc1C[C@H](N)C(=O)O; Arg(Me) = CNC(=N)NCCC[C@H](N)C(=O)O; cisHyp = O=C(O)[C@@H]1C[C@H](O)CN1; Hyp = O=C(O)[C@@H]1C[C@@H](O)CN1; αMeF = C[C@](N)(Cc1ccccc1)C(=O)O; Dab = NCC[C@H](N)C(=O)O; Nva = CCC[C@H](N)C(=O)O; azaGly = NNC(=O)O

The molecules below were run against T1, hOT7T175 (Homo sapiens, UniProt Q969F8) (assay: Assay for intracellular Ca ion level-increasing activity using FLIPR). Conditions: hOT7T175/CHO cells, relative to Metastin (1-54).
T1 construct: expressed in transfected cells
Format: cell-based
How it was run: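 CHO/dhfr− cells stably transfected with hOT7T175, selected for high metastin response, loaded with Fluo3-AM for 1 h at 37 °C in HANKS/HBSS (pH 7.4) with probenecid. Peptides were diluted from 1×10^−3 M DMSO stock into HANKS/HBSS with 2.5 mM probenecid, 0.2% BSA, 0.1% CHAPS; intracellular Ca rise read by FLIPR.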

T1 sequence (Q969F8 whole entry L364H): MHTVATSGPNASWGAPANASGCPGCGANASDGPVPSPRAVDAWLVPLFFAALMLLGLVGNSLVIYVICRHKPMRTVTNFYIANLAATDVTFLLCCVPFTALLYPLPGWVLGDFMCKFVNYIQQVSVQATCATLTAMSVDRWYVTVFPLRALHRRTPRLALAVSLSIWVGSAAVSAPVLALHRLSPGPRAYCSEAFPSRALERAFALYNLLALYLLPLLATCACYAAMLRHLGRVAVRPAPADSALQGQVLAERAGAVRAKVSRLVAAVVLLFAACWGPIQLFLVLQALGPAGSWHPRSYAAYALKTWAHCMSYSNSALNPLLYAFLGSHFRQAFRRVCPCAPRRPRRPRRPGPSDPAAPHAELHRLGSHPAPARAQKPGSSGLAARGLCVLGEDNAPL

Specific Activity: intracellular Ca ion level-increasing activity [specific activity to Metastin (1-54)] | Molecule
0.8 | CNC(=N)NCCC[C@H](NC(=O)[C@H](CC(C)C)NC(=O)NNC(=O)[C@H](Cc1ccc(C)cc1)NC(=O)[C@@H](NC(=O)[C@H](CC(N)=O)NC(=O)[C@@H]1C[C@@H](O)CN1C(=O)[C@@H](Cc1ccc(O)cc1)NC(C)=O)[C@@H](C)O)C(=O)N[C@@H](Cc1c[nH]c2ccccc12)C(N)=O [Compound No. 874, Ac-D-Tyr-Hyp-Asn-Thr-Phe(4Me)-AzaGly-Leu-Arg(Me)-Trp-NH2] (Ac-[dY][Hyp]NT[Phe(4-Me)][azaGly]L[Arg(Me)]W-NH2)
1.0 | CNC(=N)NCCC[C@H](NC(=O)[C@H](CC(C)C)NC(=O)NNC(=O)[C@@H](NC(=O)[C@@H](NC(=O)[C@H](CC(N)=O)NC(=O)[C@@H]1C[C@@H](O)CN1C(=O)[C@@H](Cc1ccc(O)cc1)NC(C)=O)[C@@H](C)O)[C@H](O)c1ccccc1)C(=O)N[C@@H](Cc1c[nH]c2ccccc12)C(N)=O [Compound No. 877, Ac-D-Tyr-Hyp-Asn-Thr-threo-Ser(3Phenyl)-AzaGly-Leu-Arg(Me)-Trp-NH2] (Ac-[dY][Hyp]NT[Phe(3R-OH)][azaGly]L[Arg(Me)]W-NH2)
0.8 | CNC(=N)NCCC[C@H](NC(=O)[C@H](CC(C)C)NC(=O)NNC(=O)[C@@H](NC(=O)[C@@H](NC(=O)[C@H](CC(N)=O)NC(=O)[C@@H]1C[C@@H](O)CN1C(=O)[C@@H](Cc1ccc(O)cc1)NC(C)=O)[C@@H](C)O)[C@@H](O)c1ccccc1)C(=O)N[C@@H](Cc1c[nH]c2ccccc12)C(N)=O [Compound No. 882, Ac-D-Tyr-Hyp-Asn-Thr-erythro-Ser(3Phenyl)-AzaGly-Leu-Arg(Me)-Trp-NH2] (Ac-[dY][Hyp]NT[Phe(βS-OH)][azaGly]L[Arg(Me)]W-NH2)
1.2 | CCC[C@H](NC(=O)[C@@H]1C[C@@H](O)CN1C(=O)[C@@H](Cc1ccc(O)cc1)NC(C)=O)C(=O)N[C@H](C(=O)N[C@@H](Cc1ccccc1)C(=O)NNC(=O)N[C@@H](CC(C)C)C(=O)N[C@@H](CCCNC(=N)NC)C(=O)N[C@@H](Cc1c[nH]c2ccccc12)C(N)=O)[C@@H](C)O [Compound No. 886, Ac-D-Tyr-Hyp-Nva-Thr-Phe-AzaGly-Leu-Arg(Me)-Trp-NH2] (Ac-[dY][Hyp][Nva]TF[azaGly]L[Arg(Me)]W-NH2)
1.1 | CNC(=N)NCCC[C@H](NC(=O)[C@H](CC(C)C)NC(=O)NNC(=O)[C@H](Cc1ccccc1)NC(=O)[C@@H](NC(=O)[C@H](CC(N)=O)NC(=O)[C@@H]1C[C@@H](O)CN1C(=O)CCc1ccc(O)cc1)[C@@H](C)O)C(=O)N[C@@H](Cc1c[nH]c2ccccc12)C(N)=O [Compound No. 888, 3-(p-Hydroxyphenyl)propionyl-Hyp-Asn-Thr-Phe-AzaGly-Leu-Arg(Me)-Trp-NH2] (Desaminotyrosyl-[Hyp]NTF[azaGly]L[Arg(Me)]W-NH2)
0.6 | CNC(=N)NCCC[C@H](NC(=O)[C@H](CC(C)C)NC(=O)NNC(=O)[C@H](Cc1ccccc1)NC(=O)[C@@H](NC(=O)[C@H](CC(N)=O)NC(=O)[C@@H]1C[C@H](O)CN1C(=O)[C@@H](Cc1ccc(O)cc1)NC(C)=O)[C@@H](C)O)C(=O)N[C@@H](Cc1c[nH]c2ccccc12)C(N)=O [Compound No. 896, Ac-D-Tyr-cisHyp-Asn-Thr-Phe-AzaGly-Leu-Arg(Me)-Trp-NH2] (Ac-[dY][cisHyp]NTF[azaGly]L[Arg(Me)]W-NH2)
0.7 | CNC(=N)NCCC[C@H](NC(=O)[C@H](CC(C)C)NC(=O)NNC(=O)[C@H](Cc1ccccc1)NC(=O)[C@@H](NC(=O)[C@H](CC(N)=O)NC(=O)[C@@H]1C[C@@H](F)CN1C(=O)[C@@H](Cc1ccc(O)cc1)NC(C)=O)[C@@H](C)O)C(=O)N[C@@H](Cc1c[nH]c2ccccc12)C(N)=O [Compound No. 897, Ac-D-Tyr-Pro(4F)-Asn-Thr-Phe-AzaGly-Leu-Arg(Me)-Trp-NH2] (Ac-[dY][Pro(trans-4-F)]NTF[azaGly]L[Arg(Me)]W-NH2)
1.1 | CNC(=N)NCCC[C@H](NC(=O)[C@H](CC(C)C)NC(=O)NNC(=O)[C@H](Cc1ccccc1)NC(=O)[C@@H](NC(=O)[C@H](CC(N)=O)NC(=O)[C@@H]1C[C@@H](O)CN1C(=O)[C@H](Cc1ccc(O)cc1)NC(C)=O)[C@@H](C)O)C(=O)N[C@@H](Cc1c[nH]c2ccccc12)C(N)=O [Compound No. 899, Ac-Tyr-Hyp-Asn-Thr-Phe-AzaGly-Leu-Arg(Me)-Trp-NH2] (Ac-Y[Hyp]NTF[azaGly]L[Arg(Me)]W-NH2)

Further lines, the molecule ahead of its results:

Molecule | Specific Activity: intracellular Ca ion level-increasing activity [specific activity to Metastin (1-54)]
CNC(=N)NCCC[C@H](NC(=O)[C@H](CC(C)C)NC(=O)NNC(=O)[C@H](Cc1ccccc1)NC(=O)[C@@H](NC(=O)[C@H](CCN)NC(=O)[C@@H]1C[C@@H](O)CN1C(=O)[C@@H](Cc1ccc(O)cc1)NC(C)=O)[C@@H](C)O)C(=O)N[C@@H](Cc1c[nH]c2ccccc12)C(N)=O [Compound No. 864, Ac-D-Tyr-Hyp-Dab-Thr-Phe-AzaGly-Leu-Arg(Me)-Trp-NH2] (Ac-[dY][Hyp][Dab]TF[azaGly]L[Arg(Me)]W-NH2) | 1.0
CNC(=N)NCCC[C@H](NC(=O)[C@H](CC(C)C)NC(=O)NNC(=O)[C@](C)(Cc1ccccc1)NC(=O)[C@@H](NC(=O)[C@H](CC(N)=O)NC(=O)[C@@H]1C[C@@H](O)CN1C(=O)[C@@H](Cc1ccc(O)cc1)NC(C)=O)[C@@H](C)O)C(=O)N[C@@H](Cc1c[nH]c2ccccc12)C(N)=O [Compound No. 868, Ac-D-Tyr-Hyp-Asn-Thr-αMePhe-AzaGly-Leu-Arg(Me)-Trp-NH2] (Ac-[dY][Hyp]NT[αMeF][azaGly]L[Arg(Me)]W-NH2) | 1.4
CNC(=N)NCCC[C@H](NC(=O)[C@H](CC(C)C)NC(=O)NNC(=O)[C@H](Cc1ccccc1C)NC(=O)[C@@H](NC(=O)[C@H](CC(N)=O)NC(=O)[C@@H]1C[C@@H](O)CN1C(=O)[C@@H](Cc1ccc(O)cc1)NC(C)=O)[C@@H](C)O)C(=O)N[C@@H](Cc1c[nH]c2ccccc12)C(N)=O [Compound No. 870, Ac-D-Tyr-Hyp-Asn-Thr-Phe(2Me)-AzaGly-Leu-Arg(Me)-Trp-NH2] (Ac-[dY][Hyp]NT[Phe(2-Me)][azaGly]L[Arg(Me)]W-NH2) | 0.6
CNC(=N)NCCC[C@H](NC(=O)[C@H](CC(C)C)NC(=O)NNC(=O)[C@H](Cc1cccc(C)c1)NC(=O)[C@@H](NC(=O)[C@H](CC(N)=O)NC(=O)[C@@H]1C[C@@H](O)CN1C(=O)[C@@H](Cc1ccc(O)cc1)NC(C)=O)[C@@H](C)O)C(=O)N[C@@H](Cc1c[nH]c2ccccc12)C(N)=O [Compound No. 872, Ac-D-Tyr-Hyp-Asn-Thr-Phe(3Me)-AzaGly-Leu-Arg(Me)-Trp-NH2] (Ac-[dY][Hyp]NT[Phe(3-Me)][azaGly]L[Arg(Me)]W-NH2) | 0.7
Ac-D-Tyr-Aze(3)-Asn-Thr-Phe-AzaGly-Leu-Arg(Me)-Trp-NH2 [Compound No. 730] | 4.1
Ac-D-Tyr-D-Trp-Asn-D-Pro-Phe-AzaGly-Leu-Arg(Me)-Trp-NH2 (Ac-[dY][dW]N[dP]F[azaGly]L[Arg(Me)]W-NH2; SMILES CNC(=N)NCCC[C@H](NC(=O)[C@H](CC(C)C)NC(=O)NNC(=O)[C@H](Cc1ccccc1)NC(=O)[C@H]1CCCN1C(=O)[C@H](CC(N)=O)NC(=O)[C@@H](Cc1c[nH]c2ccccc12)NC(=O)[C@@H](Cc1ccc(O)cc1)NC(C)=O)C(=O)N[C@@H](Cc1c[nH]c2ccccc12)C(N)=O) [Compound No. 719] | 3.8
Ac-D-Tyr-Tyr(PO3H2)-Asn-Thr-Phe-AzaGly-Leu-Arg(Me)-Trp-NH2 (Ac-[dY][pY]NTF[azaGly]L[Arg(Me)]W-NH2; SMILES CNC(=N)NCCC[C@H](NC(=O)[C@H](CC(C)C)NC(=O)NNC(=O)[C@H](Cc1ccccc1)NC(=O)[C@@H](NC(=O)[C@H](CC(N)=O)NC(=O)[C@H](Cc1ccc(OP(=O)(O)O)cc1)NC(=O)[C@@H](Cc1ccc(O)cc1)NC(C)=O)[C@@H](C)O)C(=O)N[C@@H](Cc1c[nH]c2ccccc12)C(N)=O) [Compound No. 775] | 1.3
